This note sets out measurements from patent US10098350B2, “Fungicidal amides” (E. I. DU PONT DE NEMOURS AND COMPANY, priority 2013, dated 2018).

What all share (format): in vivo
Assay [1] concerns Erysiphe graminis f. sp. tritici. The experiment in a line: Test E: wheat seedlings sprayed with test suspension, inoculated with Erysiphe graminis f. sp. tritici (wheat powdery mildew), visual disease rating. The source says:
(§1) General protocol for preparing test suspensions for Tests A-E: the test compounds were first dissolved in acetone in an amount equal to 3% of the final volume and then suspended at the desired concentration (in ppm) in acetone and purified water (50/50 mix by volume) containing 250 ppm of the surfactant Trem® 014 (polyhydric alcohol esters). The resulting test suspensions were then used in Tests A-E. Samples were applied to plants at either a 10 ppm (**), 40 ppm, 50 ppm (*) or 200 ppm (#) test solution to the point of run-off on the test plants with the equivalent of a rate of 40 g ai/ha, 160 g ai/ha, 200 g ai/ha, or 800 g ai/ha, respectively.
The test suspension was sprayed to the point of run-off on wheat seedlings. The following day the seedlings were inoculated with a spore dust of Erysiphe graminis f. sp. tritici, (the causal agent of wheat powdery mildew) and incubated in a growth chamber at 20° C. for 7 or 8 days, after which time visual disease ratings were made.
(§2) Results for Tests A-E are given in Table A. In the Table, a rating of 100 indicates 100% disease control and a rating of 0 indicates no disease control (relative to the controls). A dash (-) indicates no test results.

For assay [2], the system named is Septoria tritici. In words: Test C: wheat seedlings sprayed with test suspension, inoculated with Septoria tritici (wheat leaf blotch), visual disease rating.
Description: as §1
The test suspension was sprayed to the point of run-off on wheat seedlings. The following day the seedlings were inoculated with a spore suspension of Septoria tritici (the causal agent of wheat leaf blotch) and incubated in a saturated atmosphere at 24° C. for 48 h, and then moved to a growth chamber at 20° C. for 21 days, after which time visual disease ratings were made.
as §2

Assay [3] has as its system Puccinia recondite f. sp. tritici. In words: Test D: wheat seedlings sprayed with test suspension, inoculated with Puccinia recondite f. sp. tritici (wheat leaf rust), visual disease rating.
Description: as §1
The test suspension was sprayed to the point of run-off on wheat seedlings. The following day the seedlings were inoculated with a spore suspension of Puccinia recondite f. sp. tritici; (the causal agent of wheat leaf rust) and incubated in a saturated atmosphere at 20° C. for 24 h, and then moved to a growth chamber at 20° C. for 6 days, after which time visual disease ratings were made.
as §2

The mark [4] stands for this setting: Cmpd. No. marked '**' (other test rate; meaning of mark not shown).
Where [5] appears, read: Cmpd. No. marked '*' (other test rate; meaning of mark not shown).
[6] abbreviates: Cmpd. No. unmarked, 100 = 100% disease control, 0 = no control relative to controls.

Take `CC(c1ncc(-n2ccc(Br)n2)cc1Cl)N(C(=O)c1c(C(F)F)nn(C)c1F)C1CC1` (racemic) [compound 89]: the “Test E rating (% disease control)” value in assay [1] (setting [4]) stood at 81%. Besides, the “Test C rating (% disease control)” value in assay [2] (setting [4]) turned out to be 100%. Also, the “Test D rating (% disease control)” value in assay [3] (setting [4]) turned out to be 99%.

For the compound `CC(c1ncc(-n2ccc(-c3ccccc3)n2)cc1Cl)N(C(=O)c1c(C(F)F)nn(C)c1F)C1CC1` (racemic) [compound 90], the “Test E rating (% disease control)” value in assay [1] (setting [4]) was 86%. Also, in assay [2] (setting [4]), the “Test C rating (% disease control)” value was 99%. For the same compound, in assay [3] (setting [4]), the “Test D rating (% disease control)” value was 99%.

For `CC(c1ncc(-n2cccn2)cc1Cl)N(C(=O)c1c(C(F)F)nn(C)c1F)C1CC1` (racemic) [compound 101], in assay [1] (setting [4]), the “Test E rating (% disease control)” value is reported as 79%. Further, in assay [2] (setting [4]), the “Test C rating (% disease control)” value turned out to be 96%. The “Test D rating (% disease control)” value in assay [3] (setting [4]) was found to be 82%.

For the compound `C=C(C)c1ccc(-n2ccc(C(F)(F)F)n2)cc1C(C)N(C(=O)c1c(C(F)F)nn(C)c1F)C1CC1` (racemic) [compound 123], the “Test E rating (% disease control)” value in assay [1] (setting [5]) was determined as 93%. Besides, the “Test C rating (% disease control)” value in assay [2] (setting [5]) is given as 100%. In addition, the “Test D rating (% disease control)” value in assay [3] (setting [5]) was 92%.

Turning to `Cn1cc(C(=O)N(Cc2ncc(-n3ccc(C(F)(F)F)n3)cc2Br)C2CC2)c(C(F)F)n1` [compound 16], the “Test E rating (% disease control)” value in assay [1] (setting [5]) was 56%. Besides, in assay [2] (setting [5]), the “Test C rating (% disease control)” value came to 100%. Also, the “Test D rating (% disease control)” value in assay [3] (setting [5]) was found to be 67%.

As for `CC(c1cc(Cl)cc(-n2ccc(C(F)(F)F)n2)c1)N(C(=O)c1c(C(F)F)nn(C)c1F)C1CC1` (stereo not shown) [compound 54], the “Test E rating (% disease control)” value in assay [1] (setting [5]) is recorded as 93%. Moreover, the “Test C rating (% disease control)” value in assay [2] (setting [5]) worked out at 96%. Also, the “Test D rating (% disease control)” value in assay [3] (setting [5]) was 99%.

On to `Cc1ccc(C(C)N(C(=O)c2c(C(F)F)nn(C)c2F)C2CC2)cc1-n1ccc(C(F)(F)F)n1` (stereo not shown) [compound 73], for which, in assay [1] (setting [6]), the “Test E rating (% disease control)” value is 90%. In addition, in assay [2] (setting [6]), the “Test C rating (% disease control)” value is 99%. The “Test D rating (% disease control)” value in assay [3] (setting [6]) is 85%.

For the compound `CC(c1ccc(Cl)c(-n2ccc(C(F)(F)F)n2)c1)N(C(=O)c1c(C(F)F)nn(C)c1F)C1CC1` (stereo not shown) [compound 74], the “Test E rating (% disease control)” value in assay [1] (setting [6]) came out at 93%. Further, in assay [2] (setting [6]), the “Test C rating (% disease control)” value stood at 99%. Also, in assay [3] (setting [6]), the “Test D rating (% disease control)” value is recorded as 27%.

On to `Cn1cc(C(=O)N(Cc2cc(-n3ccc(C(F)(F)F)n3)ncc2Cl)C2CC2)c(C(F)F)n1` [compound 75], for which the “Test E rating (% disease control)” value in assay [1] (setting [4]) is 0%. The “Test C rating (% disease control)” value in assay [2] (setting [4]) is 24%. Further, the “Test D rating (% disease control)” value in assay [3] (setting [4]) was found to be 45%.

Consider `CC(c1cccc(-n2ccc(C(F)(F)F)n2)c1Cl)N(C(=O)c1cn(C)nc1C(F)F)C1CC1` (stereo not shown) [compound 77], for which the “Test E rating (% disease control)” value in assay [1] (setting [4]) came to 64%. In addition, the “Test C rating (% disease control)” value in assay [2] (setting [4]) is 82%. Besides, in assay [3] (setting [4]), the “Test D rating (% disease control)” value turned out to be 9%.

Consider `CC(c1ncc(-n2cc(Br)cn2)cc1Cl)N(C(=O)c1c(C(F)F)nn(C)c1F)C1CC1` (stereo not shown) [compound 78], for which the “Test E rating (% disease control)” value in assay [1] (setting [4]) is listed as 92%. In assay [2] (setting [4]), the “Test C rating (% disease control)” value is on record as 100%. The “Test D rating (% disease control)” value in assay [3] (setting [4]) came out at 94%.

Turning to `CC(c1cccc(-n2ccc(C(F)(F)F)n2)c1Cl)N(C(=O)c1c(C(F)F)nn(C)c1F)C1CC1` (stereo not shown) [compound 79], the “Test E rating (% disease control)” value in assay [1] (setting [5]) turned out to be 98%. In addition, in assay [2] (setting [5]), the “Test C rating (% disease control)” value is recorded as 99%. In addition, in assay [3] (setting [5]), the “Test D rating (% disease control)” value stood at 74%.

With `Cc1cc(-n2ccc(C(F)(F)F)n2)cnc1CN(C(=O)c1c(C(F)F)nn(C)c1F)C1CC1` [compound 81], the “Test E rating (% disease control)” value in assay [1] (setting [4]) amounted to 81%. Besides, the “Test C rating (% disease control)” value in assay [2] (setting [4]) turned out to be 94%. In assay [3] (setting [4]), the “Test D rating (% disease control)” value was found to be 98%.

Consider `CC(C)c1ccc(-n2ccc(C(F)(F)F)n2)cc1C(C)N(C(=O)c1cn(C)nc1C(F)F)C1CC1` (stereo not shown) [compound 82], for which, in assay [1] (setting [5]), the “Test E rating (% disease control)” value turned out to be 87%. Further, the “Test C rating (% disease control)” value in assay [2] (setting [5]) stood at 88%. The “Test D rating (% disease control)” value in assay [3] (setting [5]) is 0%.

In the case of `Cc1ccc(CN(C(=O)c2c(C(F)F)nn(C)c2F)C2CC2)cc1-n1ccc(C(F)(F)F)n1` [compound 87], in assay [1] (setting [5]), the “Test E rating (% disease control)” value is listed as 92%. Further, in assay [2] (setting [5]), the “Test C rating (% disease control)” value is listed as 98%. In assay [3] (setting [5]), the “Test D rating (% disease control)” value is listed as 80%.

In the case of `CC(C)c1ccc(-n2ccc(C(F)(F)F)n2)cc1CN(C(=O)c1c(C(F)F)nn(C)c1F)C1CC1` [compound 88], in assay [1] (setting [5]), the “Test E rating (% disease control)” value was 98%. The “Test C rating (% disease control)” value in assay [2] (setting [5]) is 94%. In addition, the “Test D rating (% disease control)” value in assay [3] (setting [5]) was determined as 99%.

As for `Cn1nc(C(F)F)c(C(=O)N(Cc2ncc(-n3ccc(C(F)(F)F)n3)cc2Br)C2CC2)c1F` [compound 91], the “Test E rating (% disease control)” value in assay [1] (setting [4]) is listed as 73%. Besides, the “Test C rating (% disease control)” value in assay [2] (setting [4]) is 100%. For the same compound, in assay [3] (setting [4]), the “Test D rating (% disease control)” value is reported as 98%.

Take `Cn1nc(C(F)F)c(C(=O)N(Cc2cc(-n3ccc(C(F)(F)F)n3)ncc2Cl)C2CC2)c1F` [compound 92]: the “Test E rating (% disease control)” value in assay [1] (setting [4]) is given as 0%. The “Test D rating (% disease control)” value in assay [3] (setting [4]) was 67%.

Consider `Cc1cc(CN(C(=O)c2c(C(F)F)nn(C)c2F)C2CC2)ccc1-n1ccc(C(F)(F)F)n1` [compound 93], for which the “Test E rating (% disease control)” value in assay [1] (setting [4]) came to 69%. Also, the “Test C rating (% disease control)” value in assay [2] (setting [4]) was 100%. Also, the “Test D rating (% disease control)” value in assay [3] (setting [4]) is on record as 99%.

On to `Cn1nc(C(F)F)c(C(=O)N(Cc2ccc(-n3ccc(C(F)(F)F)n3)c(C(F)(F)F)c2)C2CC2)c1F` [compound 95], for which the “Test E rating (% disease control)” value in assay [1] (setting [4]) is listed as 27%. In assay [2] (setting [4]), the “Test C rating (% disease control)” value is reported as 87%. In addition, the “Test D rating (% disease control)” value in assay [3] (setting [4]) was found to be 67%.

On to `COc1cc(CN(C(=O)c2c(C(F)F)nn(C)c2F)C2CC2)ccc1-n1ccc(C(F)(F)F)n1` [compound 96], for which the “Test E rating (% disease control)” value in assay [1] (setting [4]) came out at 73%. Also, the “Test C rating (% disease control)” value in assay [2] (setting [4]) was 100%. In addition, the “Test D rating (% disease control)” value in assay [3] (setting [4]) amounted to 99%.

For `C=C(C)c1cc(CN(C(=O)c2c(C(F)F)nn(C)c2F)C2CC2)ccc1-n1ccc(C(F)(F)F)n1` [compound 102], in assay [1] (setting [4]), the “Test E rating (% disease control)” value worked out at 13%. Also, the “Test C rating (% disease control)” value in assay [2] (setting [4]) is 100%. For the same compound, the “Test D rating (% disease control)” value in assay [3] (setting [4]) is on record as 98%.

As for `CC(c1ncc(-n2ccc(C(F)(F)F)n2)cc1Cl)N(C(=O)c1c(C(F)F)nn(C)c1F)C1CC1` (stereo not shown) [compound 103], the “Test E rating (% disease control)” value in assay [1] (setting [4]) is reported as 94%. Further, the “Test C rating (% disease control)” value in assay [2] (setting [4]) worked out at 98%. Moreover, the “Test D rating (% disease control)” value in assay [3] (setting [4]) stood at 98%.

In the case of `Cn1cc(-c2cnc(CN(C(=O)c3c(C(F)F)nn(C)c3F)C3CC3)c(Br)c2)cn1` [compound 110], the “Test E rating (% disease control)” value in assay [1] (setting [5]) was found to be 40%. In assay [2] (setting [5]), the “Test C rating (% disease control)” value is recorded as 90%. Further, the “Test D rating (% disease control)” value in assay [3] (setting [5]) turned out to be 94%.

With `Cn1cc(C(=O)N(Cc2cc(Cl)cc(-n3ccc(C(F)(F)F)n3)c2)C2CC2)c(C(F)F)n1` [compound 112], the “Test E rating (% disease control)” value in assay [1] (setting [5]) was determined as 40%. In addition, the “Test C rating (% disease control)” value in assay [2] (setting [5]) is on record as 94%. Moreover, the “Test D rating (% disease control)” value in assay [3] (setting [5]) amounted to 54%.

Turning to `COc1ccc(-n2ccc(C(F)(F)F)n2)cc1CN(C(=O)c1c(C(F)F)nn(C)c1F)C1CC1` [compound 113], the “Test E rating (% disease control)” value in assay [1] (setting [5]) worked out at 97%. In addition, the “Test C rating (% disease control)” value in assay [2] (setting [5]) was determined as 100%. For the same compound, the “Test D rating (% disease control)” value in assay [3] (setting [5]) was 99%.

With `CC(C)c1cc(CN(C(=O)c2c(C(F)F)nn(C)c2F)C2CC2)ccc1-n1ccc(C(F)(F)F)n1` [compound 116], in assay [1] (setting [4]), the “Test E rating (% disease control)” value amounted to 69%. In assay [3] (setting [4]), the “Test D rating (% disease control)” value came to 98%.
